Results: the supplement of paper PMC4862054

What was measured:
Conditions in all cases: incubation time: 72 h
[1] = test system: BT-474; assay: normalised response (% of control), CellTox Green; higher = less cell death (100 = DMSO, 0 = benzethonium chloride kill control)
Procedure, shortened: (§1)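 After 72 h with compound in 384-well plates, breast cancer cell lines seeded as 20 µl suspension were read for CellTox Green fluorescence at 485/520 nm. CellTiter-Glo luminescence was then read after 10 min at room temperature. Compound was present at 5 concentrations in 10-fold steps over a 10,000-fold range set per compound, and plates were normalised to 0.1 % DMSO (100) and a positive kill control (0). Values are normalised signals, each at a single concentration.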

[2] = test system: BT-549; assay: as above
Procedure, shortened: as §1

[3] = test system: CAL-120; assay: as above
Procedure, shortened: as §1

[4] = test system: CAL-148; assay: as above
Procedure, shortened: as §1

[5] = test system: CAL-51; assay: as above
Procedure, shortened: as §1

[6] = test system: CAL-85-1; assay: as above
Procedure, shortened: as §1

[7] = test system: DU-4475; assay: as above
Procedure, shortened: as §1

[8] = test system: HCC1143; assay: as above
Procedure, shortened: as §1

[9] = test system: HCC1599; assay: as above
Procedure, shortened: as §1

[10] = test system: HCC1937; assay: as above
Procedure, shortened: as §1

[11] = test system: Hs578T; assay: as above
Procedure, shortened: as §1

[12] = test system: MCF-10A; assay: as above
Procedure, shortened: as §1

[13] = test system: MDA-MB-231; assay: as above
Procedure, shortened: as §1

[14] = test system: MDA-MB-436; assay: as above
Procedure, shortened: as §1

[15] = test system: MDA-MB-453; assay: as above
Procedure, shortened: as §1

[16] = test system: MDA-MB-468; assay: as above
Procedure, shortened: as §1

[17] = test system: MFM-223; assay: as above
Procedure, shortened: as §1

[18] = test system: BT-474; assay: normalised response (% of control), CellTiter-Glo; higher = more viable cells (100 = DMSO, 0 = benzethonium chloride kill control)
Procedure: (§2)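 DSRT, 72 h incubation, CellTox Green / CellTiter-Glo readout. Signal is normalised to DMSO and benzethonium chloride controls. Value is the normalised response at dose 3.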

[19] = test system: BT-549; assay: as above
Procedure: as §2

[20] = test system: CAL-120; assay: as above
Procedure: as §2

[21] = test system: CAL-148; assay: as above
Procedure: as §2

[22] = test system: CAL-51; assay: as above
Procedure: as §2

[23] = test system: CAL-85-1; assay: as above
Procedure: as §2

[24] = test system: DU-4475; assay: as above
Procedure: as §2

[25] = test system: HCC1143; assay: as above
Procedure: as §2

[26] = test system: HCC1599; assay: as above
Procedure: as §2

[27] = test system: HCC1937; assay: as above
Procedure: as §2

[28] = test system: HDQ-P1; assay: as above
Procedure: as §2

[29] = test system: Hs578T; assay: as above
Procedure: as §2

[30] = test system: MCF-10A; assay: as above
Procedure: as §2

[31] = test system: MDA-MB-231; assay: as above
Procedure: as §2

[32] = test system: MDA-MB-436; assay: as above
Procedure: as §2

[33] = test system: MDA-MB-453; assay: as above
Procedure: as §2

[34] = test system: MDA-MB-468; assay: as above
Procedure: as §2

[35] = test system: MFM-223; assay: as above
Procedure: as §2

[36] = test system: SK-BR-3; assay: as above
Procedure: as §2

[37] = test system: HDQ-P1; assay: normalised response (% of control), CellTox Green; higher = less cell death (100 = DMSO, 0 = benzethonium chloride kill control)
Procedure, shortened: as §1

COc1cc2ncnc(Nc3ccc(F)c(Cl)c3)c2cc1OCCCN1CCOCC1 [Gefitinib] (100 nM)
normalised response [1]: 100% | normalised response [2]: 94.8% | normalised response [3]: 83.3% | normalised response [4]: 87.3% | normalised response [5]: 89.6% | normalised response [6]: 93.8% | normalised response [7]: 99.9% | normalised response [8]: 116% | normalised response [9]: 102% | normalised response [10]: 87.2% | normalised response [11]: 68% | normalised response [12]: 101% | normalised response [13]: 70.7% | normalised response [14]: 98.3% | normalised response [15]: 101% | normalised response [16]: 92.2% | normalised response [17]: 73.2% | normalised response [18]: 96.5% | normalised response [19]: 91.8% | normalised response [20]: 99.4% | normalised response [21]: 113% | normalised response [22]: 90.7% | normalised response [23]: 88% | normalised response [24]: 103% | normalised response [25]: 103% | normalised response [26]: 82.5% | normalised response [27]: 93.3% | normalised response [28]: 80.8% | normalised response [29]: 99.5% | normalised response [30]: 59.3% | normalised response [31]: 106% | normalised response [32]: 104% | normalised response [33]: 96.5% | normalised response [34]: 96% | normalised response [35]: 101% | normalised response [36]: 94.8%

O=C(Nc1ccncc1)C(=O)c1cn(Cc2ccc(Cl)cc2)c2ccccc12 [Indibulin] (100 nM)
normalised response [1]: 101% | normalised response [2]: 94.8% | normalised response [3]: 93.1% | normalised response [4]: 105% | normalised response [5]: 100% | normalised response [6]: 81.3% | normalised response [7]: 105% | normalised response [8]: 120% | normalised response [9]: 111% | normalised response [10]: 98.3% | normalised response [37]: 111% | normalised response [12]: 94.4% | normalised response [13]: 105% | normalised response [14]: 90.3% | normalised response [15]: 100% | normalised response [16]: 136% | normalised response [17]: 105% | normalised response [18]: 98.1% | normalised response [19]: 81.8% | normalised response [20]: 97.5% | normalised response [21]: 113% | normalised response [22]: 62% | normalised response [23]: 87.7% | normalised response [24]: 106% | normalised response [25]: 98.5% | normalised response [26]: 89.1% | normalised response [27]: 91.5% | normalised response [28]: 96.8% | normalised response [29]: 100% | normalised response [30]: 108% | normalised response [31]: 106% | normalised response [32]: 92% | normalised response [33]: 89.1% | normalised response [34]: 95.8% | normalised response [35]: 98.5% | normalised response [36]: 96.2%

Oc1ccc2c(c1)CC[C@H](c1ccccc1)[C@@H]2c1ccc(OCCN2CCCC2)cc1 [Lasofoxifene] (10 nM)
normalised response [1]: 102% | normalised response [2]: 108% | normalised response [3]: 104% | normalised response [4]: 90.8% | normalised response [5]: 110% | normalised response [6]: 99.8% | normalised response [7]: 104% | normalised response [8]: 117% | normalised response [9]: 114% | normalised response [10]: 77% | normalised response [37]: 90.8% | normalised response [12]: 107% | normalised response [13]: 114% | normalised response [14]: 116% | normalised response [15]: 110% | normalised response [17]: 102% | normalised response [18]: 102% | normalised response [19]: 115% | normalised response [20]: 114% | normalised response [21]: 111% | normalised response [22]: 91.3% | normalised response [23]: 103% | normalised response [24]: 107% | normalised response [25]: 104% | normalised response [26]: 106% | normalised response [27]: 95.5% | normalised response [28]: 95.3% | normalised response [29]: 103% | normalised response [30]: 108% | normalised response [31]: 110% | normalised response [32]: 109% | normalised response [33]: 99.1% | normalised response [34]: 90.8% | normalised response [35]: 105% | normalised response [36]: 112%

CO[C@H]1C[C@@H]2CC[C@@H](C)[C@@](O)(O2)C(=O)C(=O)N2CCCC[C@H]2C(=O)O[C@H]([C@H](C)C[C@@H]2CC[C@@H](OP(C)(C)=O)[C@H](OC)C2)CC(=O)[C@H](C)/C=C(\C)[C@@H](O)[C@@H](OC)C(=O)[C@H](C)C[C@H](C)/C=C/C=C/C=C/1C [Ridaforolimus] (1 nM)
normalised response [1]: 101% | normalised response [2]: 84.4% | normalised response [3]: 103% | normalised response [4]: 82.1% | normalised response [5]: 106% | normalised response [6]: 95.2% | normalised response [7]: 98.9% | normalised response [8]: 111% | normalised response [9]: 111% | normalised response [10]: 119% | normalised response [11]: 81% | normalised response [12]: 94.6% | normalised response [13]: 107% | normalised response [14]: 75.3% | normalised response [15]: 101% | normalised response [16]: 115% | normalised response [17]: 105% | normalised response [18]: 94% | normalised response [19]: 68.4% | normalised response [20]: 80.5% | normalised response [21]: 89.3% | normalised response [22]: 90.9% | normalised response [23]: 74.4% | normalised response [24]: 92.7% | normalised response [25]: 81.1% | normalised response [26]: 88.1% | normalised response [27]: 79.2% | normalised response [28]: 91.7% | normalised response [29]: 71.7% | normalised response [30]: 107% | normalised response [31]: 93.7% | normalised response [32]: 88.3% | normalised response [33]: 83.8% | normalised response [34]: 62.1% | normalised response [35]: 84.7% | normalised response [36]: 73.5%

COc1cc2/c(=N/c3ccc(Br)cc3F)nc[nH]c2cc1OCC1CCN(C)CC1 [Vandetanib] (10 nM)
normalised response [1]: 95.4% | normalised response [2]: 98.2% | normalised response [3]: 97% | normalised response [4]: 89.6% | normalised response [5]: 95.5% | normalised response [6]: 101% | normalised response [7]: 91.9% | normalised response [8]: 91.8% | normalised response [9]: 81.1% | normalised response [10]: 84.5% | normalised response [12]: 83.3% | normalised response [13]: 85.3% | normalised response [14]: 55% | normalised response [15]: 80.8% | normalised response [16]: 104% | normalised response [17]: 99.1% | normalised response [18]: 87.1% | normalised response [19]: 98% | normalised response [20]: 95.7% | normalised response [21]: 89% | normalised response [22]: 87.1% | normalised response [23]: 90.2% | normalised response [24]: 93.2% | normalised response [25]: 92.1% | normalised response [26]: 85.7% | normalised response [27]: 94.6% | normalised response [28]: 91.7% | normalised response [29]: 94.5% | normalised response [30]: 78.3% | normalised response [31]: 92.5% | normalised response [32]: 97.2% | normalised response [33]: 72.2% | normalised response [34]: 87% | normalised response [35]: 86.5% | normalised response [36]: 82.3%
